In paper PMC4995014, “Identification of ABC Transporter Interaction of a Novel Cyanoquinoline Radiotracer and Implications for Tumour Imaging by Positron Emission Tomography” (PLoS ONE, 2016):

What was measured:
MCF7 cells [1] = assay: SRB cell viability assay in MCF7 cells; format: cell-based; details: Homo sapiens, 72 h
Protocol: (§1) Cell viability by the sulforhodamine B (SRB) assay was used to assess cell growth and cytotoxicity of test compounds [29]. Cells were seeded at densities of 3,500 to 5,000 cells per well in 96 well plates overnight and pre-treated for 1 h with ABC transporter modulators: 10 μM fumitremorgin C (FTC; in MCF7MX and MCF7 cells), or 0.3 μM of zosuquidar (in 3T3 and 3T3-MDR1). Cells were then treated with test compounds for 72 h, at 37°C. After drug treatment, cells were fixed by addition of 50% trichloroacetic acid (TCA), and the plates washed and dried to allow staining with 0.4% solution of sulforhodamine B (Sigma) in 1% acetic acid for 30 minutes. Excess dye was removed upon washing with 1% acetic acid. Plates were dried and bound protein was solubilised upon addition of 150 μL of 10 mM Tris base buffer. Absorbance was measured at 540 nm using Thermo Multiskan-Ex plate reader. Cell viability versus compound concentration curves were plotted as a percentage of control cells. The concentration of drug that gave 50% inhibition in cell growth (GI50) was extrapolated from these curves using the sigmoid curve fit with variable slope in Prism (GraphPad Prism version 5.01, GraphPad Software, San Diego California USA). Three to six replicate wells were used for each drug concentration and experiments were carried out on three separate occasions for each compound.

MCF7MX cells [2] = assay: SRB cell viability assay in MCF7MX cells (ABCG2 overexpressing); format: cell-based, human; details: for GI50: Homo sapiens, MCF7/MX, 72 h, SRB; for fold increase in GI50 in the ABCG2 overexpressing cell line: GI50 MCF7MX over GI50 MCF7, without FTC
Protocol: as §1

Caco2 transwell assay = format: in vitro ADME, human; details: human; for efflux ratio at 120 min: Caco-2, no inhibitor, 10 μM cyanoquinoline or 50 μM vinblastine, read-out: efflux ratio (Papp B-A / Papp A-B)
Protocol: The caco2 transwell assay was performed to assess permeability. Cells were seeded at a density of 60,000 cells per well in 24 well transwell plates (Millipore, Billerica, Massachutsetts, USA), and maintained in DMEM supplemented with […] glucose (20% FBS, 1% penicillin/streptomycin, 1% glutamine) for 21 days at 37°C in 5% CO2. After 21 days the cells differentiate into enterocytes and express all three MDR proteins, ABCB1 and ABCG2 at the apical side and ABCC1 on the basal side. On day 21, cells were washed three times with Hank's Balanced Salt Solution (HBSS) (Fisher scientific, Loughborough, UK) and the trans-epithelial electric resistance (TERR) was measured using an Epithelial Voltohmmeter (EVOM) (World Precision Instruments, Sarasota, USA); only transwells with TERR of 400 Ω/cm^2 or above were used for the experiment. Cells were treated either at the apical (n = 3) or basal (n = 3) side of the transwell by addition of 10 μM of cyanoquinoline compound or 50 μM vinblastine prepared in a volume of 400 μL HBSS (compound added to apical well) or 800 μL of HBSS (added to basal well). When transport inhibitors FTC (10 μM) or zosuquidar (0.3 μM) were used, they were added to both the apical and basal wells 1 h prior to drug treatment. After 1 h pre-treatment the medium was removed and cells were treated with the compounds prepared in HBSS containing FTC or Zosuquidar.
Plates were incubated in shaker incubator at 37°C and 60 rpm for 120 min. After incubation, 200 μL aliquots from the apical and the basal wells were collected and analysed using high performance liquid chromatography (HPLC). Samples were run on a Millipore Waters HPLC system which included a 717 plus autosampler and 2487 dual wavelength absorbance detector system. The stationary phase comprised of a Phenomenex Luna C18 reverse phase column (150 X 4.6 mm; 5 μm particle size). The mobile phase comprised water (0.1% TFA) and acetonitrile (0.1% TFA) (80:20 v/v) at a flow rate of 1 mL/min for all compounds except vinblastine. For vinblastine, the stationary phase comprised a Supelcosil LC-ABZ reverse phase column (5 × 4.6 mm; 5 μm particle size). The mobile phase comprised water (0.1% formic acid) and methanol (90:10 to 10:90 v/v gradient over 20 min). Peak areas corresponding to the compounds of interest were recorded. Using standard curves the areas under the curve were converted into concentrations of compound. The permeability coefficient (Papp) was calculated using the following equation [30]: Papp = (dQ/dt)/A C0, where A is the surface area of the transwell membrane in cm^2 (= 0.33 cm^2), C0 is the drug concentration in the donor chamber at time t = 0 and dQ/dt is the rate of transfer of the compound to the receiver chamber, determined from the slope of the graph concentration (dQ) versus time (dt). Papp values corresponding to absorption and secretion were assessed and used to calculate efflux ratio. Efflux ratio =(Papp B−A)/(Papp A−B) Where Papp A-B = Papp absorption and Papp B-A = Papp secretion.
The integrity of the caco2 cell membrane was assessed for each well following the experiment by addition of a 100 μM solution of […] (Sigma) in HBSS to the apical side of the plate. The plates were placed in the shaker incubator for 1 h at 37°C and 60 rpm. Samples from the basal wells were transferred into a 96 well plate and the levels of […] were assessed by measuring with an excitation of 450 nm and an emission of 540 nm using the PerkinElmer Wallac 1420 counter.

ABCB1 (MDR1) = assay: SRB cell viability assay in 3T3-MDR1 cells (ABCB1 expressing); format: cell-based; details: mouse, 3T3-MDR1 cells (ABCB1 expressing), 72 h, SRB
Protocol: as §1

3T3 cells [3] = assay: SRB cell viability assay in 3T3 cells; format: cell-based; details: Mus musculus, NIH3T3, 72 h
Protocol: as §1

MCF7MX cells [4] = assay: Cell uptake assay in MCF7MX cells; format: cell-based, human
Protocol: SiRNA transfections were carried out using ON TARGET plus-SMARTpool siRNA or non-targeting siRNA (Dharmacon, Lafayette, Louisianna, USA); ABCG2, L-009924-00-0005 and scramble (non-targeting) D-001810-10-05. Lipofectamine RNAiMAX (Invitrogen UK) was used as the transfection reagent and was prepared as indicated on the product protocol. Cells were seeded in black 96 well plates in antibiotic free media. On the day of transfection, siRNA and Lipofectamine were separately diluted in opti-MEM media, mixed in a 1 to 1 ratio and incubated at room temperature for 20 min; the siRNA-Lipofectamine complexes were then added to the cells. Fresh media containing 1% penicillin streptomycin was added to the cells after 24 h followed by Hoechst fluorescent assays at 72 h.
(§2) [^18F]FED6 and [^18F]FED20 were synthesised as previously reported. To increase specific radioactivity of [^18F]FED20, we modified the synthesis by decreasing the amount of alkyne precursor from 1 mg down to 0.5 mg. While this had the desired effect of increasing the specific activity from 7.3 GBq/μmol up to 52 GBq/μmol, the conversion of the alkyne to the triazole product dropped from > 95% down to 45%. Cells were seeded in 6 well plates and [^18F]FED6 (0.22 MBq) or [^18F]FED20 (0.55 MBq or 0.74 MBq) added to each well and incubated at 37°C for 1 h. Media were then removed and cells were washed twice with PBS. The cells were trypsinised and centrifuged for 3 minutes at 2000 rpm to obtain a pellet. The cell pellet was washed once with PBS and resuspended in 200 μL of RIPA buffer. Cell lysates were transferred to gamma counting tubes and the radioactivity in the pellet was measured on a Packard Cobra II gamma counter, (Perkin-Elmer, Waltham, Massachusetts, USA). Protein concentrations of samples were evaluated using Pierce® BCA Protein Assay Kit (Thermo Scientific, Waltham, Massachusetts, USA). Data were expressed as background- and decay-corrected counts per minute (CCPMA) per μg of cellular protein.

3T3 cells [5] = assay: Cell uptake assay in 3T3 cells; format: cell-based; details: 1 h incubation with 0.22 MBq
Protocol: as §2

3T3-MDR1 cells [6] = assay: Cell uptake assay in 3T3-MDR1 cells; format: cell-based
Protocol: as §2

H358 cells = assay: Cell uptake assay in H358 cells; format: cell-based; details: 1 h incubation with 0.22 MBq
Protocol: as §2

MCF7 cells [7] = assay: Cell uptake assay in MCF7 cells; format: cell-based, human; details: 1 h incubation with 0.22 MBq
Protocol: as §2

3T3-MDR1 cells [8] = assay: SRB cell viability assay in 3T3-MDR1 cells (ABCB1 expressing); format: cell-based; details: GI50 3T3-MDR1 over GI50 3T3, without zosuquidar
Protocol: as §1

[9] = 1 h pre-treatment with 10 μM FTC
[10] = with zosuquidar 0.3 μM (1 h pre-treatment), pre-treatment with 0.3 μM zosuquidar
[11] = pre-treatment with 0.3 μM zosuquidar

Row | GI50 (MCF7 cells [1]; [9]) [µM] | GI50 (MCF7 cells [1]; without FTC) [µM] | GI50 (MCF7MX cells [2]; [9]) [µM] | GI50 (MCF7MX cells [2]; without FTC) [µM] | fold increase in GI50 in the ABCG2 overexpressing cell line (MCF7MX cells [2]) [fold] | efflux ratio at 120 min (Caco2 transwell assay) | Compound | GI50 at 72 h (ABCB1 (MDR1); [10]) [µM] | GI50 at 72 h (ABCB1 (MDR1); without zosuquidar) [µM] | GI50 (3T3 cells [3]; [11]) [µM] | GI50 (3T3 cells [3]; without zosuquidar) [µM] | fold increase in GI50 in the ABCB1 overexpressing cell line (3T3-MDR1 cells [8]) [fold] | other results
1 | 0.00536 ± 0.00063 | 0.00512 ± 0.00074 | 0.00266 ± 0.00066 | 0.00208 ± 0.00041 |  |  | CC[C@]1(O)C[C@@H]2CN(CCc3c([nH]c4ccccc34)[C@@](C(=O)OC)(c3cc4c(cc3OC)N(C)[C@H]3[C@@](O)(C(=O)OC)[C@H](OC(C)=O)[C@]5(CC)C=CCN6CC[C@]43[C@@H]65)C2)C1 [Vinblastine, reference compound] | 0.0011 ± 0.0011 | 0.219 ± 0.0008 | 0.0015 ± 0.0012 | 0.0018 ± 0.001 |  | efflux ratio at 120 min, 50 μM (Caco2 transwell assay; Caco-2, pre-treatment with zosuquidar, read-out: efflux (permeability) ratio after pre-treatment with zosuquidar): 1.7
2 |  |  |  |  |  |  | CCOc1cc2ncc(C#N)c(Nc3ccc(F)c(Cl)c3)c2cc1NC(=O)/C=C/CNCc1cn(CC[18F])nn1 [[^18F]FED6, [^18F](2E)-N-{4-[(3-chloro-4-fluorophenyl)amino]-3-cyano-7-ethoxyquinolin-6-yl}-4-({[1-(2-fluoroethyl)-1H-1,2,3-triazol-4-yl]methyl}amino)-but-2-enamide] |  |  |  |  |  | uptake in MCF7MX cells following ABCG2 siRNA (MCF7MX cells [4]; 25 nM ABCG2 siRNA 72 h, 1 h incubation with 0.22 MBq): 3.5 CCPMA/μg protein; uptake in scramble siRNA transfected MCF7MX cells (MCF7MX cells [4]; 25 nM scrambled siRNA 72 h, 1 h incubation with 0.22 MBq): 0.6 CCPMA/μg protein; fold increase of uptake in MCF7MX cells following FTC pre-treatment (MCF7MX cells [4]; 10 μM FTC for 1 h): 4 fold; uptake in MCF7MX cells following FTC pre-treatment (MCF7MX cells [4]; 10 μM FTC for 1 h, 1 h incubation with 0.22 MBq): 6 CCPMA/μg protein; uptake in MCF7MX cells following gefitinib pre-treatment (MCF7MX cells [4]; 10 μM gefitinib for 1 h, 1 h incubation with 0.22 MBq): 6.3 CCPMA/μg protein; protein normalised uptake in MCF7MX cells (MCF7MX cells [4]; 1 h incubation with 0.22 MBq): 7.7 CCPMA/μg of protein; protein normalised uptake in 3T3 cells (3T3 cells [5]): 22 CCPMA/μg of protein; fold increase of uptake in 3T3-MDR1 cells following zosuquidar pre-treatment (3T3-MDR1 cells [6]; 0.3 μM zosuquidar for 1 h): 19 fold; protein normalised uptake in 3T3-MDR1 cells (3T3-MDR1 cells [6]; 1 h incubation with 0.22 MBq): 0.7 CCPMA/μg of protein; protein normalised uptake in H358 cells (H358 cells): 86 CCPMA/μg of protein; protein normalised uptake in MCF7 cells (MCF7 cells [7]): 81 CCPMA/μg of protein
3 | 14.8 ± 8.54 | 14.9 ± 8.6 | 10.3 ± 5.95 | 27.6 ± 15.9 | 3.2 | > 3 | CCOc1cc2ncc(C#N)c(Nc3ccc(F)c(Cl)c3)c2cc1NC(=O)/C=C/CNC [FED2] | 5.9 ± 0.6 | 36 ± 1.1 | 4.5 ± 0.8 | 7 ± 1.2 | 5.1 | 
4 | 2.55 ± 0.04 | 2.61 ± 0.07 | 1.54 ± 0.06 | 4.28 ± 0.23 | 1.7 | > 3 | CCOc1cc2ncc(C#N)c(Nc3ccc(F)c(Cl)c3)c2cc1NC(=O)/C=C/CN(C)C [EKB-569, pelitinib, reference compound] | 2.7 ± 0.8 | 5.75 ± 0.7 | 1.15 ± 0.6 | 1.06 ± 0.6 | 5.4 | 
5 | 11.2 ± 1.11 | 11.4 ± 1.36 | 10.1 ± 0.73 | 6.53 ± 0.34 |  | < 1 | CCOc1cc2ncc(C#N)c(Nc3ccc(F)c(Cl)c3)c2cc1N [FED14] | 12.2 ± 0.6 | 8.7 ± 0.7 | 14.8 ± 0.7 | 14.8 ± 0.7 |  | 

Row | Compound | GI50 (MCF7 cells [1]; [9]) [µM] | GI50 (MCF7 cells [1]; without FTC) [µM] | GI50 (MCF7MX cells [2]; [9]) [µM] | GI50 (MCF7MX cells [2]; without FTC) [µM] | fold increase in GI50 in the ABCG2 overexpressing cell line (MCF7MX cells [2]) [fold] | efflux ratio at 120 min (Caco2 transwell assay) | GI50 at 72 h (ABCB1 (MDR1); [10]) [µM] | GI50 at 72 h (ABCB1 (MDR1); without zosuquidar) [µM] | GI50 (3T3 cells [3]; [11]) [µM] | GI50 (3T3 cells [3]; without zosuquidar) [µM] | fold increase in GI50 in the ABCB1 overexpressing cell line (3T3-MDR1 cells [8]) [fold] | other results
6 | O=C1c2c(O)ccc(O)c2C(=O)c2c(NCCNCCO)ccc(NCCNCCO)c21 [Mitoxantrone, reference compound] | 6.62 ± 3.82 | 10.7 ± 6.18 | 22.8 ± 13.1 | 2500 ± 1440 |  |  | 57 ± 1 | 141 ± 1 | 197 ± 0.6 | 37 ± 0.8 |  | 
